Assay results reported in PMC12610713, “Inhibition Profiling of Rhodiola crenulata on Lactate Dehydrogenase Isoenzymes” (Molecules, 2025).
Like-named read-outs stand apart in the source and are kept apart here.

Columns and labels:
MDA-MB-231 cells = test: Cell viability assay (CCK-8) MDA-MB-231; assay type: cell-based; conditions: Homo sapiens, 72 h incubation, read-out: IC50 against MDA-MB-231
Procedure: (§1) The MDA-MB-231 and HepG2 cell lines, representing triple-negative breast cancer and hepatocellular carcinoma, were selected to evaluate the inhibitory effects of LDHA and LDHB inhibitors. […] Following 72 h of incubation, 10 µL of CCK-8 reagent was added to each well, and cells were further incubated for 1–4 h. Absorbance was measured at 450 nm with a reference wavelength of 600 nm for background correction. Data from three independent experiments (each with three technical replicates) were normalized to the vehicle control (100% viability) and medium-only wells (0% viability).

HepG2 cells = test: Cell viability assay (CCK-8) HepG2; assay type: cell-based; conditions: Homo sapiens, 72 h incubation, read-out: IC50 against HepG2
Procedure: as §1

recombinant LDHB [1] = target: T1, recombinant LDHB (Homo sapiens, UniProt P07195); test: LDHB enzyme activity inhibition assay (NADH oxidation, 340 nm); assay type: biochemical; conditions: for IC50: 0.08 mM sodium pyruvate, 0.04 mM NADH, 10 min pre-incubation, 30 °C, read-out: IC50 against LDHB; for inhibition rate against LDHB (selection for dose-response): components assayed at 10 µM and 40 µM
T1 construct: His-tag; made in house; host or cells: E. coli BL21(DE3)
Procedure: The Z’ factor (Z’ = 1 − [3 × (σₚ + σₙ)]/|μₚ − μₙ|) was used to evaluate the robustness of the screening platform, where σ represents the standard deviation, μ represents the mean value, p denotes enzyme activity, and n denotes the background signal. […] (2) The enzyme-inhibitor mixture was pre-incubated for 10 min at room temperature. […] (4) At 30 °C, the enzymatic reaction was monitored at 340 nm for 20 min.
For the enzyme activity assay, the concentrations of the R. crenulata extract were 20 µg/mL, while the 19 isolated components was assayed at 10 µM and 40 µM.

recombinant LDHA [2] = target: T2, recombinant LDHA (Homo sapiens, UniProt P00338); test: LDHA enzyme activity inhibition assay (NADH oxidation, 340 nm); assay type: biochemical; set-up: His-tag; made in house; host or cells: E. coli BL21(DE3); conditions: for inhibition rate against LDHA (selection for dose-response) / LDH inhibitory activity, LDHA compared with LDHB (inhibition rates): components assayed at 10 µM and 40 µM; for LDH inhibitory activity, LDHA compared with LDHB (inhibition rates): Figure 5
recombinant LDHA [3] = target: T2, recombinant LDHA; test: Michaelis-Menten kinetics of recombinant LDHA; conditions: pyruvate varied with NADH 0.6 mM, NADH varied with sodium pyruvate 1 mM
recombinant LDHB [4] = target: T1, recombinant LDHB; test: Michaelis-Menten kinetics of recombinant LDHB; assay type: biochemical; conditions: pyruvate varied with NADH 0.6 mM; NADH varied with sodium pyruvate 1 mM
Procedure: (§2) Based on comprehensive literature evidence and systematic experimental validation, we established optimized enzymatic assay platforms for LDHA and LDHB inhibitor screening. In the platforms, 60 µL of purified enzyme solution (1.95 nM final concentration) was loaded into 96-well plates, followed by 140 µL of a 1:1 (v/v) pyruvate/NADH substrate mixture. Reactions were conducted in 0.1 M Tris-HCl buffer (with 10% glycerol, pH 7.4) at 30 °C, and NADH oxidation was kinetically monitored at 340 nm for 20 min. To determine the kinetic parameters, the optimization protocol for LDHA was performed as follows: with NADH fixed at 0.6 mM while varying sodium pyruvate (0.02–2.5 mM) to determine the optimal concentration; and with sodium pyruvate fixed at 1 mM while varying NADH (0.01–0.7 mM) to determine the optimal concentration. Similarly, the optimization protocol for LDHB was performed as follows: with NADH fixed at 0.6 mM while varying sodium pyruvate (0.01–1.05 mM) to determine the optimal concentration; and with sodium pyruvate fixed at 1 mM while varying NADH (0.01–0.7 mM) to determine the optimal concentration. The initial reaction rates were derived by analyzing the progress curves with OriginPro 2023 (OriginLab Co., Northampton, MA, USA). Kinetic parameters (Km and Vmax) were derived by nonlinear regression analysis of the Michaelis-Menten equation using GraphPad Prism 8.0 (GraphPad Software, San Diego, CA, USA).

CC(=O)C(=O)O [5] = test: purified protein, by the assay type; conditions: other: pyruvate varied with NADH 0.6 mM; NADH varied with sodium pyruvate 1 mM; pH 7.4; 30.0 °C
CC(=O)C(=O)O [6] = system: T3, CC(=O)C(=O)O; test: Michaelis-Menten kinetics of recombinant LDHB; assay type: biochemical, homo sapiens; conditions: other: pyruvate varied with NADH 0.6 mM; NADH varied with sodium pyruvate 1 mM; pH 7.4; 30.0 °C
T3 construct: His-tag; made in house; host or cells: E. coli BL21(DE3)
Procedure: as §2

[7] = 0.16 mM sodium pyruvate, 0.04 mM NADH, 10 min pre-incubation, 30 °C, read-out: IC50 against LDHA

T1 sequence (P07195 whole entry): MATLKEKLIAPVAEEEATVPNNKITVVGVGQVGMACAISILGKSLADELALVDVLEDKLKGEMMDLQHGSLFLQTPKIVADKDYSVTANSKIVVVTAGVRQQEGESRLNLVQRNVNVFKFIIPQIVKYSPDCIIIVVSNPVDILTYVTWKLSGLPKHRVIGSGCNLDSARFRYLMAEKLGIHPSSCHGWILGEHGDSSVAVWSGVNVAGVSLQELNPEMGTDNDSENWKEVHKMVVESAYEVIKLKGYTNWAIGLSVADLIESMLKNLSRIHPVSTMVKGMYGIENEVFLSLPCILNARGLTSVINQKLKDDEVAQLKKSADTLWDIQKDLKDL

| IC50 (MDA-MB-231 cells) [µM] | IC50 (HepG2 cells) [µM] | IC50 (recombinant LDHB [1]) [nM] | inhibition rate against LDHB (selection for dose-response) (recombinant LDHB [1]) | inhibition rate against LDHA (selection for dose-response) (recombinant LDHA [2]) | IC50 (recombinant LDHA [2]; [7]) [nM] | Compound | LDH inhibitory activity, LDHA compared with LDHB (inhibition rates) (recombinant LDHA [2]) | further results |
| --- | --- | --- | --- | --- | --- | --- | --- | --- |
| 25.1 ± 1 | 74 ± 3.5 | 2710 ± 390 | exceeding 80% | exceeding 80% | – | O=c1cc(-c2ccc(O)c(O)c2)oc2cc(O)cc(O)c12 [Luteolin, luteolin] | stronger inhibition against LDHA than LDHB | – |
| 37.5 ± 2 | 50 ± 2.5 | 8690 ± 850 | exceeding 80% | exceeding 80% | 700 ± 130 | O=c1c(O)c(-c2ccc(O)cc2)oc2cc(O)cc(O)c12 [Kaempferol, kaempferol] | stronger inhibition against LDHA than LDHB | potency in inhibiting LDHA relative to LDHB (IC50 comparison) (recombinant LDHA [2]; LDHA vs LDHB): more than 10 fold |

Second part, the compound before the results:

| Compound | IC50 (MDA-MB-231 cells) [µM] | IC50 (HepG2 cells) [µM] | IC50 (recombinant LDHB [1]) [nM] | inhibition rate against LDHB (selection for dose-response) (recombinant LDHB [1]) | inhibition rate against LDHA (selection for dose-response) (recombinant LDHA [2]) | IC50 (recombinant LDHA [2]; [7]) [nM] | LDH inhibitory activity, LDHA compared with LDHB (inhibition rates) (recombinant LDHA [2]) | further results |
| --- | --- | --- | --- | --- | --- | --- | --- | --- |
| NC(=O)C1=CN([C@@H]2O[C@H](COP(=O)([O-])OP(=O)([O-])OC[C@H]3O[C@@H](n4cnc5c(N)ncnc54)[C@H](O)[C@@H]3O)[C@@H](O)[C@H]2O)C=CC1.[Na+].[Na+] [NADH, β-Nicotinamide adenine dinucleotide disodium salt] | – | – | – | – | – | – | – | Vmax of LDHA (recombinant LDHA [3]): 15.37 ± 0.57 µM/min; Km (recombinant LDHA [3]; read-out: Km of LDHA): 39 ± 6 µM; Km (recombinant LDHB [4]): 40 ± 5 µM; Vmax of LDHB (recombinant LDHB [4]): 10.05 ± 0.33 µM/min |
| recombinant LDHA (Homo sapiens) | – | – | – | – | – | – | – | Km (CC(=O)C(=O)O [5]): 0.160 ± 0.027 mM |
| O=c1oc2c(O)c(O)cc3c(=O)oc4c(O)c(O)cc1c4c23 [Ellagic acid] | 54.3 ± 2.5 | 59 ± 3 | – | – | – | – | stronger inhibition against LDHA than LDHB | – |
| O=c1c(O)c(-c2ccc(O)c(O)c2)oc2cc(O)cc(O)c12 [Quercetin] | 27.3 ± 1.5 | 54.8 ± 3 | 870 ± 70 | exceeding 80% | exceeding 80% | 270 ± 20 | stronger inhibition against LDHA than LDHB | – |
| O=C(O[C@@H]1Cc2c(O)cc(O)cc2O[C@@H]1c1ccc(O)c(O)c1)c1cc(O)c(O)c(O)c1 [Epicatechin gallate, epicatechin gallate] | 23.5 ± 1 | 33.8 ± 1 | – | – | exceeding 80% | 2270 ± 230 | stronger inhibition against LDHA than LDHB | – |
| recombinant LDHB (Homo sapiens) | – | – | – | – | – | – | – | Km (CC(=O)C(=O)O [6]): 0.074 ± 0.019 mM |
| Cc1cc2c(C(C)C)c(O)c(O)c(C=O)c2c(O)c1-c1c(C)cc2c(C(C)C)c(O)c(O)c(C=O)c2c1O [gossypol, reference compound] | – | – | – | – | – | – | – | IC50 (recombinant LDHA [2]): 190 ± 50 nM |
